Here are results for two molecules from publication PMC11862134 (Nature Communications, 2025).

No end group written: not given here.

One experiment relates to BAM1 and BAM3 receptor. To be noted: upon reaching the leaves, drought stress; cited from earlier work.
Experiment [1] deals with GST-tagged TaCLV1-LRR (extracellular domains of TaCLV1, residues 58-668) (wheat (Triticum aestivum L.)). The experiment is described as follows: MST.

“CLE25: CLE25 peptide, messenger of water deficiency from roots to leaves (RKVPNGPDPIHN; ends and bridges not checked; UniProt Q8LFL4 58-69, looked up)”: in the experiment on BAM1 and BAM3 receptor, the “interaction with BAM1 and BAM3 receptor” value was “interacts with and activates BAM1 and BAM3 receptor”.

As usually defined, the Kd is the constant that tells how readily two partners part at equilibrium. A high value points to a looser complex. With RLSPGGSNPQHH [mature TaCLE24b peptide], in experiment [1], the Kd was determined as 19.4 nM.
